Source: ChEMBL document CHEMBL1149752, “Antitumor agents, 135. Structure and stereochemistry of polacandrin, a new cytotoxic triterpene from Polanisia dodecandra” (1992)
≈ marks a conversion by molar mass, not a printed value.

Experiments:
Format in all cases: functional
Details in all cases: read-out: ED50 (the source's name)
[1] = test system: RPMI-7951; experiment: Cytotoxicity against human RPMI7951 cells
[2] = test system: P388; experiment: Cytotoxicity against mouse P388 cells
[3] = test system: KB; experiment: Cytotoxicity against human KB cells
[4] = test system: HCT-8; experiment: Cytotoxicity against human HCT8 cells

SMILES: CC(C)(O)[C@@H]1CC[C@@](C)([C@H]2CC[C@]3(C)[C@@H]2[C@H](O)C[C@@H]2[C@@]4(C)[C@H](O)C[C@@H](O)C(C)(C)[C@@H]4CC[C@]23C)O1 [POLACANDRIN]
- EC50 [1]: 0.62 µg/mL (≈ 1.26 µM)
- EC50 [2]: 0.9 µg/mL (≈ 1.83 µM)
- EC50 [3]: 0.6 µg/mL (≈ 1.22 µM)
- EC50 [4]: 6.06 µg/mL (≈ 12.3 µM)
